Experimental data published in patent US11331294B2, “Benzoquinone derivative E3330 in combination with chemotherapeutic agents for the treatment of bladder cancer” (Indiana University Research and Technology Corporation, priority 2007, dated 2022).

Columns and labels:
Assay type in all cases: cell-based, human
[1] = system: SW780, T24, UC3 cell lines; assay: Methylene blue cell growth assay, bladder cancer cell panel
Protocol: FIGS. 31A & 31B. Treatment with APE1/Ref-1 inhibitors potently blocks bladder cancer cell proliferation and activated Caspase 3/7. […] The IC50 values for FIG. 31A were determined using the methylene blue assay, n=4. […] T24 and UC3 cells were treated with APX2009 and APX2014 at the IC50 and IC90 and monitored over time for activation of capsase 3/7 by an increase in red fluorescence. Time course graphs are shown in FIG. 31B and representative images at 48 hr are shown in FIG. 32A (described more fully below), n=3-4.
Bladder cancer cell proliferation was inhibited and apoptosis was induced by potent, selective redox inhibitors of APE1/Ref-1.

RP-B-02 spheroids = assay: 3D spheroid growth assay RP-B-02; conditions: p<0.05
Source text: RP-B-01 and RP-B-02 cells were resuspended in normal growth media containing 3% Reduced Growth Factor Matrigel (BD Biosciences) at a cell density of 1,500 and 3,000 cells/well, respectively and plated in ultra-low adherence 96-well plates (Corning).
Spheroids were allowed to form and then treated on days 4, 8, and 12 following plating with media containing 5% serum, 3% Reduced Growth Factor Matrigel, and APE1/Ref-1 inhibitors. Vehicle control, DMSO, was less than 0.01% of the volume, and was equivalent in each well. On Day 15, Alamar blue reagent (LifeTechnologies) was added to each well (10 μL/well) and incubated for 24 hours.
In order to mimic tumor growth more accurately in a relevant microenvironment and in a more robust model for predicting response to treatment, a three-dimensional (3D) culture model of patient-derived RP-B-01 and RP-B-02 bladder cancer cells was used. Both RP-B-01 and RP-B-02 cell lines are transitional cell carcinoma staged as T4bN1Mx and T2bN0Mx Grade III tumors, respectively.

STAT3 = assay: STAT3-driven luciferase reporter; conditions: T24 and UC3 cells induced with IL-6, IC50 concentration, 24 h
Protocol: FIGS. 36A-36H. […] In cytokine-induced T24 and UC3 cells NFκB-driven luciferase (FIG. 36A), STAT3-driven luciferase (FIG. 36B), and AP-1-driven luciferase (FIG. 36C) were quantified and normalized via Renilla following treatment with the corresponding cell growth-inhibitory IC50 concentrations. T24 cells were treated with APX2009 (8.5 μM) and APX2014 (6.5 μM), and UC3 cells were treated with APX2009 (6.1 μM) and APX2014 (4.6 μM) for 24 h. (*-p<0.05 APX treated vs vehicle, n=4). […] In the panels of FIGS. 36F & 36G, co-expression of survivin and APE1/Ref-1 was analyzed in superficial (FIG. 36F) and invasive human bladder tumors (FIG. 36G) in patients, and found nearly universal overlap of positivity in both in human samples. This was also true in cisplatin-refractory patients from the tissue microarray specimens (FIG. 36H).
The transcriptional activity of NFκB, STAT3, and AP-1 is under redox control by APE1/Ref-1. Therefore, NFκB, STAT3, or AP-1 transcriptional activity was quantified following treatment with APE1/Ref-1 redox inhibitors (FIGS. 36A-36C).

## CCC/C(=C\C1=C(OC)C(=O)c2ccccc2C1=O)C(=O)N(CC)CC [APX2009, [(2E)-2-[(3-methoxy-1,4-dioxo-1,4-dihydronaphthalen-2-yl)methylidene]-N,N-diethylpentanamide]]
[1]
  fold lower IC50 than APX3330: 7 fold
RP-B-02 spheroids
  potency in RP-B-02 cells in 3D culture relative to APX3330: more potent in the RP-B-02 cells than parent compound APX3330
STAT3
  STAT3 transcriptional activity: significantly blocked
